Patent US10131663B2, “Chemical compounds” (AstraZeneca AB, priority 2016, dated 2018)
In brackets after ≈: the same amount, converted by molar mass.

What was measured:
[1] = log D (shake flask, 1-octanol/aqueous buffer); type: physicochemical
Summary of the method: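 Distribution between 1-octanol and aqueous buffer at pH 7.4 was measured by shake flask, with compounds run in mixtures of ten. Relative concentrations in each phase were quantified by UPLC with quantitative MS. Caffeine served as a low-log D QC sample in all runs.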

hERG potassium channel = hERG potassium channel (Homo sapiens (Human), UniProt Q12809); test: hERG binding assay (automated patch clamp, CHO cells); type: cell-based; details: CHO cell line, Nanion Syncropatch 384PE
Summary of the method: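 CHO cells on automated patch clamp; compounds tested in quadruplicate. Currents evoked every 15 s from −80 mV holding by a 500 ms step to 60 mV then 500 ms to −40 mV.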

[2] = Human Caco-2 bidirectional permeability A to B and B to A; type: in vitro ADME; details: for Papp at 2 h: Caco-2, 2 hours, pH 7.4
Method: An automated assay was used to determine the bidirectional permeability (efflux and uptake) of compounds in Caco-2 cells carried out over 2 hours at pH 7.4.
The efflux ratio (ER) can be determined using the following equation: ER=Papp(B-A)/Papp(A-B) Where Papp (B-A) indicates the apparent permeability coefficient in basolateral to apical direction, and Papp (A-B) indicates the apparent permeability coefficient in apical to basolateral direction. Human Caco-2 Passive Permeability A to B Papp

[3] = biological target: estrogen receptor (ERα) in CAMA-1 cells (Homo sapiens (Human), UniProt P03372); test: Western blotting assay, ER down-regulation in CAMA-1; type: cell-based; details: 100 nM compound, 48 h, normalised to 100 nM fulvestrant
Method: (§1) Cells were incubated with compounds (100 nM) or vehicle control (0.1% DMSO) for 48 h at 37° C., 5% CO2 before washing once with PBS and lysing with 80 μl lysis buffer (25 mM Tris/HCl, 3 mM EDTA, 3 mM EGTA, 50 mM NaF, 2 mM sodium orthovanadate, 0.27 M sucrose, 10 mM β-glycerophosphate, 5 mM sodium pyrophosphate, 0.5% TritonX-100, pH 6.8) on ice.
(§2) Samples were boiled for 10 min at 95° C. and then frozen at −20° C. until ready for use.
(§3) The blot was stained with Ponceau S (P7170, Sigma) and cut according to appropriate molecular weight markers.
(§4) Membranes were blocked for 1 hour at room temp in 5% Marvel (w/v) in phosphate-buffered saline containing 0.05% Tween™ 20 (PBS/Tween). Blots were then incubated with anti-ERα (SP1) rabbit monoclonal antibody (Thermofisher) diluted 1:1000 at 4° C. overnight (with gentle shaking) followed by several washes with PBS/Tween. […] All antibodies were made up in 5% Marvel (w/v) in PBS/Tween.
(§5) Down-regulation of the ERα receptor was normalised to the vehicle control (0% down-regulation) and the 100 nM fulvestrant control (100% down-regulation) run within the same gel.

[4] = biological target: T1, Estrogen Receptor (ERα) in MCF-7 cells (Homo sapiens (Human), UniProt P03372); test: Western blotting assay, ER down-regulation in MCF-7; type: cell-based; details: 100 nM compound, 48 h, normalised to 100 nM fulvestrant
Method: as §1, §2, §3, §4, §5

[5] = Human plasma protein binding (equilibrium dialysis); type: in vitro ADME; details: dialysis 18 hours
Summary of the method: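 Fraction unbound (fu %) in human plasma, from LC/MSMS of plasma and buffer sides (7-point plasma calibration) after 18 h rapid equilibrium dialysis. Single determinations, with compounds pooled up to 10 per plasma pool.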

[6] = Thermodynamic solubility (shake-flask); type: physicochemical; details: aqueous phosphate buffer, 25 °C, pH 7.4, aqueous buffer, thermodynamic from solid, aqueous phosphate buffer pH 7.4, 24 hours
Summary of the method: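 Shake-flask method starting from 10 mM DMSO stocks, which are dried before use. Residue equilibrated 24 h at 25° C. in aqueous phosphate buffer, pH 7.4. Dissolved fraction separated and quantified by UPLC/MS/MS, with QC samples in each run.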

[7] = biological target: T1, Estrogen Receptor (ERα) in MCF-7 cells; test: MCF-7 ER down-regulation assay (immuno-fluorescence); type: cell-based
Summary of the method: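 Compounds dispensed acoustically from DMSO stocks onto MCF-7 cells; cells fixed 20 min at room temperature, then automated immunostaining for ERα with overnight incubation at 4° C. Read-out is mean total ER fluorescence intensity normalized to cell number (intensity per cell), with curve fitting for concentration-response values.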

[8] = biological target: recombinant human Estrogen Receptor alpha ligand binding domain (ER alpha-LBD (GST)) (Homo sapiens (Human), UniProt P03372); test: ERα binding assay (LanthaScreen TR-FRET competition); details: TR-FRET, displacement of Fluormone ES2
Summary of the method: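 Competition binding to GST-tagged human ERα ligand-binding domain, read by LanthaScreen TR-FRET: Tb-anti-GST antibody labels the receptor and compounds displace a fluorescent tracer, lowering the signal. IC50 was taken from dose-response curve fitting.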

[9] = Human hepatocyte assay (metabolic stability); type: in vitro ADME; details: human hepatocytes
Method: The metabolic stability of compounds in human hepatocytes was assessed using the following protocol: • 1. Prepare 10 mM stock solutions of compound and control compounds in appropriate solvent (DMSO). Place incubation medium (L-15 Medium) in a 37° C. water bath, and allow warming for at least 15 minutes prior to use. • 2. Add 80 μL of acetonitrile to each well of the 96-well deep well plate (quenching plate). • 3. In a new 96-well plate, dilute the 10 mM test compounds and the control compounds to 100 μM by combining 198 μL of acetonitrile and 2 μL of 10 mM stock. • 4. Remove a vial of cryopreserved (less than −150° C.) human hepatocytes (LiverPool™ 10 Donor Human hepatocytes obtained from Celsis IVT. Chicago, Ill. (Product No. S01205)) from storage, ensuring that vials remain at cryogenic temperatures until thawing process ensues. As quickly as possible, thaw the cells by placing the vial in a 37° C. water bath and gently shaking the vials. Vials should remain in water bath until all ice crystals have dissolved and are no longer visible. After thawing is complete, spray vial with 70% ethanol, transfer the vial to a bio-safety cabinet. • 5. Open the vial and pour the contents into the 50 mL conical tube containing thawing medium. Place the 50 mL conical tube into a centrifuge and spin at 100 g for 10 minutes. […] Using Cellometer® Vision, count cells and determine the viable cell density. Cells with poor viability (<80% viability) are not acceptable for use. […] Transfer 247.5 μL of hepatocytes into each well of a 96-well cell culture plate. Place the plate on Eppendorf Thermomixer Comfort plate shaker to allow the hepatocytes to warm for 10 minutes. • 8. Add 2.5 μL of 100 μM test compound or control compounds into an incubation well containing cells, mix to achieve a homogenous suspension at 0.5 min, which when achieved, will define the 0.5 min time point. At the 0.5 min time, transfer 20 μL of incubated mixture to wells in a “Quenching plate” followed by vortexing. • 9. Incubate the plate at 37° C. at 900 rpm on an Eppendorf Thermomixer Comfort plate shaker. […] Centrifuge the quenching plates for 20 minutes at 4,000 rpm. 4 different compounds are pooled into one cassette and used for LC/MS/MS analysis.
All calculations were carried out using Microsoft Excel. Peak areas were determined from extracted ion chromatograms. In vitro intrinsic clearance (in vitro Clint, in […]) of parent compound was determined by regression analysis of the Ln percent parent disappearance vs. time curve.
V=incubation volume (0.25 mL);
N=number of hepatocytes per well (0.25×10^6 cells).

[10] = 1-octanol/aqueous buffer, pH 7.4, pH 7.4, 1-octanol/aqueous buffer

Chain of hERG potassium channel (Q12809 whole entry): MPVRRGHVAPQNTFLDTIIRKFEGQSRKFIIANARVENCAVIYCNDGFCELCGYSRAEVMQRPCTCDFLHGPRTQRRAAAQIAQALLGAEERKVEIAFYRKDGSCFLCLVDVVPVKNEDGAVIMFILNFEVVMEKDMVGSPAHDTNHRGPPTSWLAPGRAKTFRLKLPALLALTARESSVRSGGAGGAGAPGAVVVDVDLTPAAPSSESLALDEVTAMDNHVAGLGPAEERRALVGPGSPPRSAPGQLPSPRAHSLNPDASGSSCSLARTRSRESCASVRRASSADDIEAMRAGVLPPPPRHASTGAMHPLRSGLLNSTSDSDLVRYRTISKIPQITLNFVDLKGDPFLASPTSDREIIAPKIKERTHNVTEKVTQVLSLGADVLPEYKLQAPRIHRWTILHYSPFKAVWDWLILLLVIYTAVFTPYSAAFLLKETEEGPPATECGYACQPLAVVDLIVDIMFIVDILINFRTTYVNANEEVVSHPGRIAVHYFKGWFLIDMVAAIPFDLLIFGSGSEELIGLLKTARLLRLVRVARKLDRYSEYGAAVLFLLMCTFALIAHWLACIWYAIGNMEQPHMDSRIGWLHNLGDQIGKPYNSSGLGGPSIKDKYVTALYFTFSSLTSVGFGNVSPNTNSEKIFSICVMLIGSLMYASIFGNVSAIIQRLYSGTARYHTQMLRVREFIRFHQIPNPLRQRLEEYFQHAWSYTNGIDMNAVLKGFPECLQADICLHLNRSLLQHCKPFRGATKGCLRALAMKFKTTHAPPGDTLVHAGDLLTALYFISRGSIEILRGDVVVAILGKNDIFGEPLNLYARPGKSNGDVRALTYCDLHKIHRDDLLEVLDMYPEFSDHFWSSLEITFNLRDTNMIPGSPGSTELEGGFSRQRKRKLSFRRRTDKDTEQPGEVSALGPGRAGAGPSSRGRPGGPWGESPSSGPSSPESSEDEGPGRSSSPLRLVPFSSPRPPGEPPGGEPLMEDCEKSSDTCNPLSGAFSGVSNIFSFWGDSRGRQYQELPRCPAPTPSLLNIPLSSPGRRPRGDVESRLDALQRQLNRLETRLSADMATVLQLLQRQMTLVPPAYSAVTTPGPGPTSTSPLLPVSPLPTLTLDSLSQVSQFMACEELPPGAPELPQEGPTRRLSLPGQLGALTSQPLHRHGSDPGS
Chain of recombinant human Estrogen Receptor alpha ligand binding domain (ER alpha-LBD (GST)) (P03372 307-554): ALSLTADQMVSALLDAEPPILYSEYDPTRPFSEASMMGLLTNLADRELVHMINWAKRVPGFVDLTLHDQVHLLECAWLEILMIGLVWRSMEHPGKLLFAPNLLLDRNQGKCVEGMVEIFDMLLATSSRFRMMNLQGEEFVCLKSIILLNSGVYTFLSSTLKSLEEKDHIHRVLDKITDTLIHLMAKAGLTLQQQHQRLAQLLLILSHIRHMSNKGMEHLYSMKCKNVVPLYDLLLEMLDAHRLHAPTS
Chain of estrogen receptor (ERα) in CAMA-1 cells (P03372 whole entry): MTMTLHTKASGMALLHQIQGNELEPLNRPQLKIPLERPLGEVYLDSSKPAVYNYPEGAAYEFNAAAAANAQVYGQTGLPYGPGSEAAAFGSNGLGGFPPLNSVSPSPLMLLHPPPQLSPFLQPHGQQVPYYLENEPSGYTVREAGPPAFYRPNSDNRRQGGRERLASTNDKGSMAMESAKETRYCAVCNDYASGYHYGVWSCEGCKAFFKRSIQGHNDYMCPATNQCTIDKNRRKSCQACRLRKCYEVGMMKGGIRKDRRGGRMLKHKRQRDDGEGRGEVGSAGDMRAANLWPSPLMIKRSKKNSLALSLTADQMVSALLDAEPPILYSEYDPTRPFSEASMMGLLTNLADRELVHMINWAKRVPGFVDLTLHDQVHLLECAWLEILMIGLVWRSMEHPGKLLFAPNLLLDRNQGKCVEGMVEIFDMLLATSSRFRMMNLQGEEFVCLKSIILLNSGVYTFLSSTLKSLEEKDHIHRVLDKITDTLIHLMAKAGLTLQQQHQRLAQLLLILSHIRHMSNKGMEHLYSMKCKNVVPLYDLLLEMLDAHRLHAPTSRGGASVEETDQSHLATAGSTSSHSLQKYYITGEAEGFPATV
T1 sequence (P03372 whole entry): as above

Structure (SMILES)	logD [1, 10]	IC50 (hERG potassium channel) [nM]	Papp at 2 h [2] [×10⁻⁶ cm/s]	CAMA1 Western % ER deg vs Fv [3] [%]	MCF7 Western % ER deg vs Fv [4] [%]	Human plasma protein binding (% free) [5] [% free]	solubility at 24 h [6] [µM]	IC50 [7] [nM]	IC50 [8] [nM]	logD ([1]; pH 7.4, 1-octanol/aqueous buffer)	efflux ratio at 2 h ([2]; Caco-2, pH 7.4)	hepatocyte CLint at 1 µM [9] [µL/min/1e6 cells]
C[C@@H]1Cc2c(ccc3[nH]nc(F)c23)[C@@H](c2ccc(NC3CN(CCCF)C3)cn2)N1CC(F)(F)F [Example 32]	3.5	14000	3.4	89	89	6.5	692 (≈ 342 µg/mL)	–	–	–	–	–
C[C@@H]1Cc2c(ccc3[nH]ncc23)[C@@H](c2ncc(OC3CN(CCCF)C3)cc2F)N1CC(F)(F)CO [Example 59, 2,2-difluoro-3-((6S,8R)-6-(3-fluoro-5-((1-(3-fluoropropyl)azetidin-3-yl)oxy)pyridin-2-yl)-8-methyl-3,6,8,9-tetrahydro-7H-pyrazolo[4,3-f]isoquinolin-7-yl)propan-1-ol]	2.4	> 40000	–	102	104	33	971 (≈ 493 µg/mL)	1.6	7.2	–	–	–
C[C@@H]1Cc2c(ccc3[nH]ncc23)[C@@H](c2c(F)cc(NC3CN(CCCF)C3)cc2F)N1CC(F)(F)CO [Example 5, 3-((6S,8R)-6-(2,6-difluoro-4-((1-(3-fluoropropyl)azetidin-3-yl)amino)phenyl)-8-methyl-3,6,8,9-tetrahydro-7H-pyrazolo[4,3-f]isoquinolin-7-yl)-2,2-difluoropropan-1-ol]	3.3	13000	–	109	99	8.6	297 (≈ 155 µg/mL)	0.077	2.2	–	–	–
C[C@@H]1Cc2c(ccc3[nH]ncc23)[C@@H](c2ccc(NC3CN(CCCF)C3)nc2F)N1CC(F)(F)F [Example 40, 6-fluoro-N-(1-(3-fluoropropyl)azetidin-3-yl)-5-((6S,8R)-8-methyl-7-(2,2,2-trifluoroethyl)-6,7,8,9-tetrahydro-3H-pyrazolo[4,3-f]isoquinolin-6-yl)pyridin-2-amine]	3.5	4500	–	120	98	6.4	479 (≈ 237 µg/mL)	0.1	1.3	–	–	–
CC(C)CN1[C@H](c2ccc(NC3CN(CCCF)C3)cn2)c2ccc3[nH]ncc3c2C[C@H]1C [Example 69, N-(1-(3-fluoropropyl)azetidin-3-yl)-6-((6S,8R)-7-isobutyl-8-methyl-6,7,8,9-tetrahydro-3H-pyrazolo[4,3-f]isoquinolin-6-yl)pyridin-3-amine]	2.9	24000	–	98	95	37	> 1000	0.55	8.9	–	–	–
C[C@@H]1Cc2c(ccc3[nH]ncc23)[C@@H](c2ccc(N(C)C3CN(CCCF)C3)cn2)N1CC(F)(F)F [Example 34, N-(1-(3-fluoropropyl)azetidin-3-yl)-N-methyl-6-((6S,8R)-8-methyl-7-(2,2,2-trifluoroethyl)-6,7,8,9-tetrahydro-3H-pyrazolo[4,3-f]isoquinolin-6-yl)pyridin-3-amine]	–	7700	–	82	85	15	471 (≈ 231 µg/mL)	0.22	1.9	3.2	–	–
C[C@@H]1Cc2c(ccc3[nH]ncc23)[C@@H](c2c(F)cc(NC3CN(CCCF)C3)cc2F)N1CC1(F)CC1 [Example 11, N-(3,5-difluoro-4-((6S,8R)-7-((1-fluorocyclopropyl)methyl)-8-methyl-6,7,8,9-tetrahydro-3H-pyrazolo[4,3-f]isoquinolin-6-yl)phenyl)-1-(3-fluoropropyl)azetidin-3-amine]	3.9	–	1.6	–	–	2	186 (≈ 93.3 µg/mL)	0.094	20	–	1.4	7
C[C@@H]1Cc2c(ccc3[nH]ncc23)[C@@H](c2ncc(NC3CN(CCCF)C3)cc2F)N1CC(F)F [Example 46, 6-((6S,8R)-7-(2,2-difluoroethyl)-8-methyl-6,7,8,9-tetrahydro-3H-pyrazolo[4,3-f]isoquinolin-6-yl)-5-fluoro-N-(1-(3-fluoropropyl)azetidin-3-yl)pyridin-3-amine]	2.5	> 40000	–	102	105	31	> 1000	0.4	3.6	–	–	–
